# Source: patent publication US8937067B2, “Activators of human pyruvate kinase” (The United States of America, as represented by the …, priority 2008, dated 2015)
# Values joined by “and” are separate entries in the source; they are usually repeats but may differ in a detail not shown here. Equal values may be shown once. Read-outs that look alike come from different tables or passages of the source.
# Key:
# hPK-M2 [1] = molecular target: T1, hPK-M2 (Homo sapiens, UniProt P14618); assay: Luminescent pyruvate kinase-luciferase coupled assay (KinaseGlo); assay type: biochemical; conditions: for activation at 57 µM: read-out: hPK, M2 Max. Res.; for Emax: read-out: maximum response
# T1 sequence (P14618 whole entry): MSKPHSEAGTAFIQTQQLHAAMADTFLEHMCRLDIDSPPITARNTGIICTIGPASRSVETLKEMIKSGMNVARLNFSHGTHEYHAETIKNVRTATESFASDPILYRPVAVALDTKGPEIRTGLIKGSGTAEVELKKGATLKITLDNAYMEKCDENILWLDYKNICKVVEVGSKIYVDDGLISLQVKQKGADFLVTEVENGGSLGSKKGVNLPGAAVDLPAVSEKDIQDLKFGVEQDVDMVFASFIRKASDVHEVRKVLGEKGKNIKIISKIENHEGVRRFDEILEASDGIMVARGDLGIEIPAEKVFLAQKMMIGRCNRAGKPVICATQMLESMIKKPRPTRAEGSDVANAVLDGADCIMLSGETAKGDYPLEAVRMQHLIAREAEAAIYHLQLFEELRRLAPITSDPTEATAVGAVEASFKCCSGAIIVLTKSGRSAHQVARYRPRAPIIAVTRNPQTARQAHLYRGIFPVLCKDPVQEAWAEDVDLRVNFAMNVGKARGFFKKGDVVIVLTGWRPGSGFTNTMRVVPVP
# Description: Luminescent Pyruvate Kinase-Luciferase Coupled Assay.
# Production of a luminescent signal based on the generation of ATP by pyruvate kinase was determined by using the ATP-dependent enzyme firefly luciferase. Three μL of substrate mix (at r.t.) in assay buffer (50 mM imidazole pH 7.2, 50 mM KCl, 7 mM MgCl2, 0.01% tween 20, 0.05% BSA) was dispensed into Kalypsys white solid bottom 1,536 well microtiter plates using a bottle-valve solenoid-based dispenser (Kalypsys). The final concentrations of substrates in the assay were 0.1 mM ADP and 0.5 mM PEP. […] Microtiter plates were incubated at r.t. for 1 hour and 2 uL of luciferase detection mix (Kinase-Glo, Promega at 4° C. protected from light) was added and luminescence was read with a ViewLux (Perkin Elmer) using a 5 second exposure/plate. Data was normalized for AC50 values to control columns containing uninhibited enzyme (n), and AC100 inhibition (i) according the following equation: Activation (%)=[(c−n)/(n−i)]*100 where c=compound, n=DMSO neutral, i=no enzyme control. […] Monitoring of activation was accomplished using enzyme at 3× the final concentration.
# hPK-M2 [2] = molecular target: T1, hPK-M2; assay: Fluorescent pyruvate kinase-lactate dehydrogenase (LDH) coupled secondary assay; assay type: biochemical; conditions: for AC50: read-out: AC50, LDH assay; for Emax: read-out: maximum response, LDH assay
# Description: Fluorescent Pyruvate Kinase-Lactate Dehydrogenase Coupled Secondary Assay.
# Plates were immediately placed in ViewLux (Perkin Elmer) and NADH fluorescence was determined at 30 second exposure intervals for between 3 and 6 minutes. Data were normalized to the uninhibited and EC100 activation using known activators such as fructose-1,6-bis-phosphate. […] Data was collected on the Perkin Elmer Viewlux.
# [3] = KinaseGlo, % activation at 57 μM of compound
# [4] = luciferase-coupled assay, read-out: AC50
# [5] = luciferase-coupled assay, relative to activation by FBP
# [6] = luminescent pyruvate kinase-luciferase coupled assay (KinaseGlo), tables, read-out: hPK, M2 AC50
SMILES,activation at 57 µM (hPK-M2 [1]; [3]) [%],AC50 (hPK-M2 [1]; [6]) [nM],AC50 (hPK-M2 [2]) [nM],Emax (hPK-M2 [2]) [%],other results
"COc1ccc(S(=O)(=O)N2CCN(S(=O)(=O)c3ccc4c(c3)OCCO4)CC2)cc1 [Compound 1, 1-(2,3-dihydrobenzo[b][1,4]dioxin-6-ylsulfonyl)-4-(4-methoxyphenylsulfonyl)piperazine]",92.2 ± 12,111,300 ± 100,224,AC50 (hPK-M2 [1]; [4]): 63 ± 20 nM; maximum response (hPK-M2 [1]; [5]): 122.1% and 92.2%
"O=S(=O)(c1cccc(F)c1)N1CCN(S(=O)(=O)c2ccc3c(c2)OCCO3)CC1 [Compound 7, 1-(2,3-dihydrobenzo[b][1,4]dioxin-6-ylsulfonyl)-4-(3-fluorophenylsulfonyl)piperazine]",107 ± 8.8,316,,259,Emax (hPK-M2 [1]; [5]): 96.3%
"COc1ccc(S(=O)(=O)N2CCN(S(=O)(=O)c3c(F)cccc3F)CC2)cc1 [Compound 21, 1-(2,6-difluorophenylsulfonyl)-4-(4-methoxyphenylsulfonyl)piperazine]",102 ± 9.2,90,211 ± 50,124 ± 30,
"O=S(=O)(c1c(F)cccc1F)N1CCN(S(=O)(=O)c2c(F)cccc2F)CC1 [Compound 22, 1,4-bis(2,6-difluorophenylsulfonyl)piperazine]",74.3 ± 9.8,66,172 ± 29,85 ± 8,
"O=S(=O)(c1ccc2c(c1)OCCCO2)N1CCN(S(=O)(=O)c2c(F)cccc2F)CC1 [Compound 23, 1-(2,6-difluorophenylsulfonyl)-4-(3,4-dihydro-2,1-benzo[b][1,4]dioxepin-7-ylsulfonyl)piperazine]",100 ± 6.6,,~500,109 ± 11,AC50 (hPK-M2 [1]; [4]): 103 nM
"O=S(=O)(c1ccc2ccccc2c1)N1CCN(S(=O)(=O)c2c(F)cccc2F)CC1 [Compound 26, 1-(2,6-difluorophenylsulfonyl)-4-(naphthalen-2-ylsulfonyl)piperazine]",138 ± 11.3,66,220 ± 53,161 ± 29,
"O=S(=O)(N[C@H]1CC[C@H](NS(=O)(=O)c2c(F)cccc2F)CC1)c1ccc2c(c1)OCCO2 [Compound 37, N-((trans)-4-(2,6-difluorophenylsulfonamido)cyclohexyl)-2,3-dihydrobenzo[b][1,4]dioxine-6-sulfonamide]",90.8 ± 12.4,,7000 ± 1500,56 ± 11,AC50 (hPK-M2 [1]; [4]): 2110 ± 640 nM
"O=S(=O)(N[C@H]1CC[C@@H](NS(=O)(=O)c2c(F)cccc2F)CC1)c1ccc2c(c1)OCCO2 [Compound 38, N-((cis)-4-(2,6-difluorophenylsulfonamido)cyclohexyl)-2,3-dihydrobenzo[b][1,4]dioxine-6-sulfonamide]",60.7 ± 5.6,> 35000,7000 ± 1500,56 ± 11,AC50 (hPK-M2 [1]; [4]): 37100 ± 5000 nM
"O=C1CN(S(=O)(=O)c2c(F)cccc2F)CCN1S(=O)(=O)c1ccc2c(c1)OCCO2 [Compound 49, 4-(2,6-difluorophenylsulfonyl)-1-(2,3-dihydrobenzo[b][1,4]dioxin-6-ylsulfonyl)piperazin-2-one]",105 ± 9,114 ± 20,440 ± 240,87 ± 37,
"O=C1CN(S(=O)(=O)c2ccc3c(c2)OCCO3)CCN1S(=O)(=O)c1c(F)cccc1F [Compound 50, 1-(2,6-difluorophenylsulfonyl)-4-(2,3-dihydrobenzo[b][1,4]dioxin-6-ylsulfonyl)piperazin-2-one]",96.9 ± 5.6,2420 ± 160,3160,82,
"CC(C)c1cc2c(s1)c1cnn(Cc3ccccc3F)c(=O)c1n2C [Compound 69, 2-Isopropyl-4-methyl-6-[(2-fluorophenyl)methyl]-4H-thieno[3,2-b]pyrrole[3,2-d]pyridazinone]",106 ± 6.2,142 ± 20,1800,302,Emax (hPK-M2 [1]; [5]): 100%
"Cc1cc2c(s1)c1cnn(Cc3ccc(F)cc3)c(=O)c1n2C [Compound 105, 2,4-Methyl-6-[(4-fluorophenyl)methyl]-4H-thieno[3,2-b]pyrrole[3,2-d]pyridazinone]",102 ± 8.9,57 ± 20,,,
"Cc1cc2c(s1)c1cnn(Cc3ccccc3Cl)c(=O)c1n2C [Compound 106, 2,4-Methyl-6-[(2-chlorophenyl)methyl]-4H-thieno[3,2-b]pyrrole[3,2-d]pyridazinone]",95.6 ± 10,298 ± 140,,,
"Cc1cc2c(s1)c1cnn(Cc3cccc(Cl)c3)c(=O)c1n2C [Compound 107, 2,4-Methyl-6-[(3-chlorophenyl)methyl]-4H-thieno[3,2-b]pyrrole[3,2-d]pyridazinone]",99.1 ± 3.1,126 ± 10,,,
"Cc1ccc(Cn2ncc3c4sc(C)cc4n(C)c3c2=O)cc1 [Compound 109, 2,4-Methyl-6-[(4-methylphenyl)methyl]-4H-thieno[3,2-b]pyrrole[3,2-d]pyridazinone]",84.1 ± 5.5,356 ± 120,,,
"Cc1cc2c(s1)c1cnn(Cc3cccc(F)c3F)c(=O)c1n2C [Compound 114, 2,4-Methyl-6-[(2,3-difluorophenyl)methyl]-4H-thieno[3,2-b]pyrrole[3,2-d]pyridazinone]",72.8 ± 7.8,215 ± 60,,,
"Cc1cc2c(s1)c1cnn(Cc3c(F)cccc3Cl)c(=O)c1n2C [Compound 115, 2,4-Methyl-6-[(2-chloro-6-fluorophenyl)methyl]-4H-thieno[3,2-b]pyrrole[3,2-d]pyridazinone]",92.9 ± 4.1,60 ± 20,,,
"Cc1cc2c(s1)c1cnn(Cc3ccc(F)c(F)c3F)c(=O)c1n2C [Compound 116, 2,4-Methyl-6-[(2,3,4-trifluorophenyl)methyl]-4H-thieno[3,2-b]pyrrole[3,2-d]pyridazinone]",69.2 ± 14.6,174 ± 70,,,
"Cc1cc2c(s1)c1cnn(Cc3c(F)c(F)cc(F)c3F)c(=O)c1n2C [Compound 117, 2,4-Methyl-6-[(2,3,5,6-tetrafluorophenyl)methyl]-4H-thieno[3,2-b]pyrrole[3,2-d]pyridazinone]",59.4 ± 6.3,345 ± 60,,,
"Cc1cc2c(s1)c1cnn(Cc3cccc(C)c3F)c(=O)c1n2C [Compound 118, 2,4-Methyl-6-[(3-methyl-2-fluorophenyl)methyl]-4H-thieno[3,2-b]pyrrole[3,2-d]pyridazinone]",97.4 ± 6.9,35 ± 10,,,
"Cc1cc2c(s1)c1cnn(Cc3ccc(C)c(F)c3F)c(=O)c1n2C [Compound 119, 2,4-Methyl-6-[(4-methyl-2,3-fluorophenyl)methyl]-4H-thieno[3,2-b]pyrrole[3,2-d]pyridazinone]",,108 ± 30,,,"hPK, M2 Max. Res. (hPK-M2 [1]; [3]): 80.5 ± 5.8%"
CCNc1cccc(S(=O)(=O)N2CCN(S(=O)(=O)c3ccc4c(c3)OCCO4)CC2)c1 [Compound 136],,81,,,"hPK, M2 Max. Res. (hPK-M2 [1]; [3]): 63.00%"
CN(C)c1cccc(S(=O)(=O)N2CCN(S(=O)(=O)c3ccc4c(c3)OCCO4)CC2)c1 [Compound 138],,92,,,"hPK, M2 Max. Res. (hPK-M2 [1]; [3]): 54.00%"
CNc1cccc(S(=O)(=O)N2CCN(S(=O)(=O)c3ccc4c(c3)OCCO4)CC2)c1 [Compound 142],,290,,,"hPK, M2 Max. Res. (hPK-M2 [1]; [3]): 67.00%"
Nc1cc(S(=O)(=O)N2CCN(S(=O)(=O)c3ccc4c(c3)OCCO4)CC2)ccn1 [Compound 146],,1600,,,"hPK, M2 Max. Res. (hPK-M2 [1]; [3]): 81.00%"
COc1cccc(Cn2ncc3c4sc([S+](C)[O-])cc4n(C)c3c2=O)c1 (centres unmarked) [Compound 148],89,92,,,
Cn1c2cc([S+](C)[O-])sc2c2cnn(Cc3cccc(N)c3)c(=O)c21 (centres unmarked) [Compound 149],,,,,activation at 57 µM (hPK-M2 [1]): 91%
"O=C(COP(=O)(O)O)[C@@H](O)[C@H](O)[C@H](O)COP(=O)(O)O [FBP, fructose-1,6-bis-phosphate, reference compound]",,,,,"% Activation by FBP (hPK-M2 [1]; average, 100% is approximately a 2-fold increase over basal signal): 100%"
